Test system: 3D7-MR4 trophozoite parasite-infected RBCs
Assay: Metabolomic profiling (hydrophilic metabolite changes, UHPLC-MS)
Format: cell-based, Plasmodium falciparum

## CC(C)(C)c1ccc2c(c1)CN(Cc1ccc(Cl)cc1)CO2 [MMV000442]
Metabolite adenosine, log2 fold change
  Log2(fold changes) adenosine: 0.0000
Metabolite alanine/sarcosine, log2 fold change
  Log2(fold changes) alanine/sarcosine: -0.9186
Metabolite anthranilate, log2 fold change
  Log2(fold changes) anthranilate: 0.3315
Metabolite arginine, log2 fold change
  Log2(fold changes) arginine: -1.6314
Metabolite asparagine, log2 fold change
  Log2(fold changes) asparagine: -0.3296
Metabolite aspartate, log2 fold change
  Log2(fold changes) aspartate: -0.6205
Metabolite biotin, log2 fold change
  Log2(fold changes) biotin: -0.8987
Metabolite cCMP, log2 fold change
  Log2(fold changes) cCMP: 0.0000
Metabolite cGMP, log2 fold change
  Log2(fold changes) cGMP: 0.0000
Metabolite carnitine, log2 fold change
  Log2(fold changes) carnitine: 0.0000
Metabolite citrate/isocitrate, log2 fold change
  Log2(fold changes) citrate/isocitrate: 0.0000
Metabolite coenzyme A
  Log2(fold change) of coenzyme A: 0.0000
Metabolite cyclic-AMP
  Log2(fold change) of cyclic-AMP: -0.6289
Metabolite cytidine
  Log2(fold change) of cytidine: 0.6525
Metabolite dAMP
  Log2(fold change) of dAMP: 0.2859
Metabolite dATP
  Log2(fold change) of dATP: 0.0000
Metabolite dCDP
  Log2(fold change) of dCDP: -0.4379
Metabolite dCMP
  Log2(fold change) of dCMP: 0.0000
Metabolite dCTP
  Log2(fold change) of dCTP: 0.0000
Metabolite dGDP/ADP
  Log2(fold change) of dGDP/ADP: -0.0785
Metabolite dGMP/AMP
  Log2(fold change) of dGMP/AMP: 0.0000
Metabolite dGTP/ATP
  Log2(fold change) of dGTP/ATP: 0.0000
Metabolite dTDP
  Log2(fold change) of dTDP: -0.1987
Metabolite dTMP
  Log2(fold change) of dTMP: 0.0000
Metabolite dTTP
  Log2(fold change) of dTTP: -0.2587
Metabolite dUMP
  Log2(fold change) of dUMP: 0.0000
Metabolite dUTP
  Log2(fold change) of dUTP: -0.3266
Metabolite deoxyguanosine
  Log2(fold change) of deoxyguanosine: 0.0000
Metabolite deoxyinosine
  Log2(fold change) of deoxyinosine: 0.0000
Metabolite deoxyribose-phosphate
  Log2(fold change) of deoxyribose-phosphate: 0.7610
Metabolite deoxyuridine
  Log2(fold change) of deoxyuridine: 0.1388
Metabolite dihydroorotate
  Log2(fold change) of dihydroorotate: -0.6717
Metabolite folate
  Log2(fold change) of folate: -0.1041
Metabolite fructose-1-6-bisphosphate
  Log2(fold change) of fructose-1-6-bisphosphate: -0.1009
Metabolite fructose-6-phosphate
  Log2(fold change) of fructose-6-phosphate: -0.3802
Metabolite fumarate
  Log2(fold change) of fumarate: -0.7813
Metabolite glucono-lactone
  Log2(fold change) of glucono-lactone: 0.0000
Metabolite glucose-1/6-phosphate
  Log2(fold change) of glucose-1/6-phosphate: 0.0000
Metabolite glutamate
  Log2(fold change) of glutamate: -0.2803
Metabolite glutamine
  Log2(fold change) of glutamine: -0.0929
Metabolite glutathione
  Log2(fold change) of glutathione: -0.1808
Metabolite glutathione disulfide
  Log2(fold change) glutathione disulfide: -0.3868
Metabolite glycerate
  Log2(fold change) glycerate: -0.4490
Metabolite guanine
  Log2(fold change) guanine: -0.8448
Metabolite guanosine
  Log2(fold change) guanosine: -1.2469
Metabolite histidine
  Log2(fold change) histidine: -1.0996
Metabolite homocysteic acid
  Log2(fold change) homocysteic acid: -0.4943
Metabolite hydroxyphenylpyruvate
  Log2(fold change) hydroxyphenylpyruvate: 0.0000
Metabolite hydroxyproline/Aminolevulinate
  Log2(fold change) hydroxyproline/Aminolevulinate: -0.0777
Metabolite hypoxanthine
  Log2(fold change) hypoxanthine: -0.1293
Metabolite indole
  Log2(fold change) indole: 0.0000
Metabolite inosine
  Log2(fold change) inosine: -0.6031
Metabolite isoleucine
  Log2(fold change) isoleucine: -0.8559
Metabolite lactate
  Log2(fold change) lactate: -0.6662
Metabolite leucine
  Log2(fold change) leucine: 0.0000
Metabolite lysine
  Log2(fold change) lysine: -2.7291
Metabolite malate
  Log2(fold change) malate: -1.5961
Metabolite maleic acid
  Log2(fold change) maleic acid: 0.0000
Metabolite methionine
  Log2(fold change) methionine: -0.3354
Metabolite myo-inositol
  Log2(fold change) myo-inositol: 0.0000
Metabolite nicotinamide mononucleotide
  Log2(fold change) nicotinamide mononucleotide: -1.1163
Metabolite nicotinate
  Log2(fold change) nicotinate: -0.1414
Metabolite ornithine
  Log2(fold change) ornithine: -0.3825
Metabolite orotate
  Log2(fold change) orotate: 0.0000
Metabolite orotidine-5'-phosphate
  Log2(fold change) orotidine-5'-phosphate: -4.2271
Metabolite oxaloacetate
  Log2(fold change) oxaloacetate: 0.0000
Metabolite p-aminobenzoate
  Log2(fold change) p-aminobenzoate: 0.0000
Metabolite p-hydroxybenzoate
  Log2(fold change) p-hydroxybenzoate: 0.0000
Metabolite pantothenate
  Log2(fold change) pantothenate: -0.5576
Metabolite phenylalanine
  Log2(fold change) phenylalanine: -0.7473
Metabolite phenylpyruvate
  Log2(fold change) phenylpyruvate: 0.0000
Metabolite phosphoenolpyruvate
  Log2(fold change) phosphoenolpyruvate: 0.5342
Metabolite prephenate
  Log2(fold change) prephenate: -0.6985
Metabolite proline
  Log2(fold change) proline: -0.4674
Metabolite pyridoxine
  Log2(fold change) pyridoxine: -0.4977
Metabolite pyruvate
  Log2(fold change) pyruvate: -0.6971
Metabolite riboflavin
  Log2(fold change) riboflavin: 0.0000
Metabolite ribose
  Log2(fold change) ribose: -0.3439
Metabolite ribose-phosphate
  Log2(fold change) ribose-phosphate: -0.4255
Metabolite ribulose-5-phosphate
  Log2(fold change) ribulose-5-phosphate: 0.0000
Metabolite serine
  Log2(fold change) serine: -0.2977
Metabolite sn-glycerol-3-phosphate
  Log2(fold change) sn-glycerol-3-phosphate: 0.0000
Metabolite succinate/Methylmalonic acid
  Log2(fold change) succinate/Methylmalonic acid: 0.2362
Metabolite succinyl-CoA/methylmalonyl-CoA
  Log2(fold change) succinyl-CoA/methylmalonyl-CoA: 0.0000
Metabolite taurine
  Log2(fold change) taurine: 0.0000
Metabolite thiamine
  Log2(fold change) thiamine: -0.4264
Metabolite threonine/homoserine
  Log2(fold change) threonine/homoserine: -0.5095
Metabolite thymidine
  Log2(fold change) thymidine: 0.0000
Metabolite thymine, log2 fold change
  Log2(fold changes) thymine: 0.0000
Metabolite trehalose-6-Phosphate, log2 fold change
  Log2(fold changes) trehalose-6-Phosphate: 0.0000
Metabolite tryptophan, log2 fold change
  Log2(fold changes) tryptophan: -0.3248
Metabolite tyrosine, log2 fold change
  Log2(fold changes) tyrosine: -0.3731
Metabolite uridine, log2 fold change
  Log2(fold changes) uridine: -0.7263
Metabolite valine, log2 fold change
  Log2(fold changes) valine: 0.0000
Metabolite xanthine, log2 fold change
  Log2(fold changes) xanthine: 0.0000
Metabolite xanthosine-5-phosphate, log2 fold change
  Log2(fold changes) xanthosine-5-phosphate: 0.0000
Metabolite xanthosine, log2 fold change
  Log2(fold changes) xanthosine: -0.5168
Metabolite xylose, log2 fold change
  Log2(fold changes) xylose: 0.0000
